Legend:
[1] = biological target: CRBN-DDB1 protein complex (Homo sapiens, UniProt Q96SW2); experiment: Fluorescence polarization (FP) assay, displacement of Cy5-labelled thalidomide; conditions: 25 nM CRBN-DDB1, 5 nM Cy5-labelled thalidomide, read-out: CRBN binding Ki
Description: CRBN-DDB1 protein complex was mixed with Cy5-labelled thalidomide and a compound to be tested (the “test compound”). […] The test solution was added to a 384-well assay plate.
The plate was spun-down (1 min, 1000 rpm, 22° C.) and then shaken using a VibroTurbulator for 10 min at room temperature (20-25° C.), with the frequency set to level 3. The assay plate with protein and the tracer was incubated for 60 min at room temperature (20-25° C.) prior to read-out with a plate reader.
The FP experiment was carried out with various concentrations of the test compounds in order to measure Ki values.

[2] = biological target: T1, IKZF1-compound-CRBN/DDB1 ternary complex (Homo sapiens, UniProt Q96SW2); experiment: IKZF1-compound-CRBN/DDB1 ternary complex formation, AlphaLISA homogenous assay; type: biochemical; conditions: AlphaLISA, 0.1, 1 and 10 μM, normalized to Lenalidomide response
T1 construct: Strep-tagged Ikaros (IKZF1 ZF2)
Description: Strep-tagged Ikaros (IKZF1 ZF2) and His-CRBN/DDB1 complex preparations were centrifugated to remove large aggregates (18000 rcf, 4° C., 5 min). Supernatant was collected and protein concentration was determined spectrophotometrically. The AlphaLISA bead-Protein mixtures were prepared: CRBN-acceptor bead (40 μg/ml Anti-6×His beads, 200 nM His-CRBN/DDB1 in PBS pH 7.4 supplemented with 0.1% Tween-20) Ikaros-donor bead mix (40 μg/ml Strep-Tactin beads, 800 nM IKZF1 in PBS pH 7.4 supplemented with 0.1% Tween-20 and 2 mM DTT). Bead mixes were incubated in dark for 30 minutes at room temperature. Tested compounds were dispensed into small volume AlphaPlate (Perkin Elmer) using Echo 555 liquid handler. CRBN-acceptor bead mix and Ikaros-donor bead mix were combined and dispensed into plate with compounds and DMSO only (10 μl of master mix per well). Final sample composition: 20 μg/ml Anti-6×His beads, 20 μg/ml Strep-Tactin beads, 100 nM His-CRBN/DDB1, 400 nM IKZF1, 2% DMSO, 0.1% Tween-20, 1 mM DTT in PBS pH 7.4, +/− compound. Plate was sealed and covered to protect against light. Sample was mixed using Vibroturbulator. […] The plate seal was removed and sample luminescence was determined using Perkin Elmer Enspire plate reader. Readouts were assigned to certain compound concentration. […] The average and standard deviation (SD) were calculated for each compound concentration point. […]

[3] = biological target: BRD4-compound-CRBN/DDB1 ternary complex (Homo sapiens, UniProt O60885+Q96SW2); experiment: BRD4-compound-CRBN/DDB1 ternary complex formation, AlphaLISA homogenous assay; type: biochemical; conditions: for EC50: 100 nM His-CRBN/DDB1, 20 nM BRD4, N = 3, read-out: TF50 (compound concentration which mediate the half of maximal response observed for Ternary Complex); for Normalized AUC to dBET1: area under curve 1.63-2500 nM
Description: Biotinylated BRD4 and His-CRBN/DDB1 complex preparations were centrifugated to remove large aggregates (18000 rcf, 4° C., 5 min). Supernatant was collected and protein concentration was determined spectrophotometrically. The AlphaLISA bead-Protein mixtures were prepared: CRBN-acceptor bead (40 μg/ml Anti-6×His beads, 200 nM His-CRBN/DDB1 in PBS pH 7.4 supplemented with 0.1% Tween-20) and BRD4-donor bead (40 μg/ml Streptavidin beads, 40 nM BRD4 in PBS pH 7.4 supplemented with 0.1% Tween-20 and 2 mM DTT). Bead mixes were incubated in dark for 30 minutes at room temperature.
CRBN-acceptor bead mix and BRD4-donor bead mix were combined and dispensed into plate with compounds and DMSO only (10 μl of master mix per well). Final sample composition: 20 μg/ml Anti-6×His beads, 20 μg/ml Stretavidin beads, 100 nM His-CRBN/DDB1, 20 nM BRD4, 2% DMSO, 0.1% Tween-20, 1 mM DTT in PBS pH 7.4, +/− compound. Plate was sealed and covered to protect against light. Sample was mixed using Vibroturbulator. Subsequently, solutions in the plate was centrifugated and incubated in the dark for 30 minutes at 25° C. The plate seal was removed and sample luminescence was determined using Perkin Elmer Enspire plate reader. Readouts were assigned to certain compound concentration. Solutions without compound were utilized to determine background response (an average value) which subsequently was subtracted from raw data collected for compound mixtures.

[4] = test system: IKZF1; experiment: IKZF1 degradation assay, H929 cell line (western blot densitometry); type: cell-based; conditions: H929 cells; for % of IKZF1 α protein reduction based on densitometry values: 6 h; for % of protein reduction based on densitometry values, IKZF 1 (24 H): summary Table 10, 20 μM (some compounds 10 and 20 μM)
Excerpt: (§1) After primary and secondary Ab staining, the membranes were washed and signals developed. The densitometry analysis was implemented to obtain the numeric values used later in the protein level evaluation process.

[5] = biological target: BRD4 (Homo sapiens, UniProt O60885); experiment: BRD4 degradation assay, H929 cell line (Simple Western); conditions: H929 cells, 6 h
[6] = test system: IKZF3; experiment: IKZF3 degradation assay, H929 cell line (western blot densitometry); type: cell-based; conditions: H929 cells; for % of protein reduction based on densitometry values, IKZF3 (24 H): summary Table 10, 10 and 20 μM
[7] = test system: SALL4; experiment: SALL4 degradation assay, Kelly cell line (western blot densitometry); type: cell-based; conditions: summary Table 10; Kelly cells, 24 H; 20 μM (some compounds 10 and 20 μM)
Excerpt: as §1

[8] = test system: CK1α; experiment: CK1α degradation assay, Kelly cell line (western blot densitometry); type: cell-based; conditions: summary Table 10; Kelly cells, 24 H; 20 μM (some compounds 10 and 20 μM)
Excerpt: as §1

SMILES	Ki [1] [nM]	EC50 [3] [nM]	Normalized AUC to dBET1 [3]	BRD4 degradation (in words) [5]	% of IKZF1 α protein reduction based on densitometry values ([4]; 0.1 μM)	% of IKZF1 α protein reduction based on densitometry values ([4]; 1 μM)	% of IKZF1 α protein reduction based on densitometry values ([4]; 10 μM)	% of IKZF3 protein reduction based on densitometry values, IKZF3 Band I ([6]; 0.1 μM, 6 h)	% of IKZF3 protein reduction based on densitometry values, IKZF3 Band II ([6]; 0.1 μM, 6 h)	% of IKZF3 protein reduction based on densitometry values, IKZF3 Band I ([6]; 1 μM, 6 h)	% of IKZF3 protein reduction based on densitometry values, IKZF3 Band II ([6]; 1 μM, 6 h)	% of IKZF3 protein reduction based on densitometry values, IKZF3 Band I ([6]; 10 μM, 6 h)	% of IKZF3 protein reduction based on densitometry values, IKZF3 Band II ([6]; 10 μM, 6 h)	% of protein reduction based on densitometry values, IKZF 1 (24 H) [4]	% of protein reduction based on densitometry values, SALL4 (24 H) [7]	% of protein reduction based on densitometry values, CK1α (24 H) [8]	% of IKZF3 protein reduction based on densitometry values, IKZF3 Band I ([6]; 10 μM, 24 h)	% of IKZF3 protein reduction based on densitometry values, IKZF3 Band II ([6]; 10 μM, 24 h)	% of IKZF3 protein reduction based on densitometry values, IKZF3 Band I ([6]; 20 μM, 24 h)	% of IKZF3 protein reduction based on densitometry values, IKZF3 Band II ([6]; 20 μM, 24 h)	further results
Cc1sc2c(c1C)C(c1ccc(Cl)cc1)=N[C@@H](CC(=O)NCCCCCCCCNC(=O)CCc1nc3c(C(=O)NC4CCC(=O)NC4=O)cccc3[nH]1)c1nnc(C)n1-2 (stereo partly drawn) [Compound 64, 2-(3-((8-(2-((S)-4-(4-chlorophenyl)-2,3,9-trimethyl-6H-thieno[3,2-f][1,2,4]triazolo[4,3-a][1,4]diazepin-6-yl)acetamido)octyl)amino)-3-oxopropyl)-N-(2,6-dioxopiperidin-3-yl)-1H-benzo[d]imidazole-7-carboxamide]	1000 to 10000	70.5	1.45	can degrade BRD4	≤25% (≤25% for 0-25% of IKZF1 protein reduction)	≤25% (≤25% for 0-25% of IKZF1 protein reduction)	≤25% (≤25% for 0-25% of IKZF1 protein reduction)	≤25% (≤25% for 0-25% of IKZF3 protein reduction)	≤25% (≤25% for 0-25% of IKZF3 protein reduction)	>25% (>25% for 26-74% of IKZF3 protein reduction)	≤25% (≤25% for 0-25% of IKZF3 protein reduction)	≤25% (≤25% for 0-25% of IKZF3 protein reduction)	≤25% (≤25% for 0-25% of IKZF3 protein reduction)	–	–	–	–	–	–	–	–
COc1cc(C(=O)NC2CCC(=O)NC2=O)c2nc(C)[nH]c2c1 (stereo not drawn) [Compound 30, N-(2,6-dioxopiperidin-3-yl)-6-methoxy-2-methyl-1H-benzo[d]imidazole-4-carboxamide]	< 1000	–	–	–	–	–	–	–	–	–	–	–	–	≤25% (≤25% for 0-25% of IKZF1 protein reduction)	≤25% (≤25% for 0-25% of SALL4 protein reduction)	≤25% (≤25% for 0-25% of CK1a protein reduction)	≤25% (≤25% for 0-25% of IKZF3 protein reduction)	≤25% (≤25% for 0-25% of IKZF3 protein reduction)	≤25% (≤25% for 0-25% of IKZF3 protein reduction)	≤25% (≤25% for 0-25% of IKZF3 protein reduction)	% of protein reduction based on densitometry values, IKZF3 (24 H) [6]: ≤25% (≤25% for 0-25% of IKZF3 protein reduction)
Cc1nc2c(C(=O)NC3CCC(=O)NC3=O)cccc2[nH]1 (stereo not drawn) [Compound 15, N-(2,6-dioxopiperidin-3-yl)-2-methyl-1H-benzo[d]imidazole-4-carboxamide]	< 1000	–	–	–	–	–	–	–	–	–	–	–	–	≤25% (≤25% for 0-25% of IKZF1 protein reduction)	≤25% (≤25% for 0-25% of SALL4 protein reduction)	≤25% (≤25% for 0-25% of CK1a protein reduction)	≤25% (≤25% for 0-25% of IKZF3 protein reduction)	≤25% (≤25% for 0-25% of IKZF3 protein reduction)	≤25% (≤25% for 0-25% of IKZF3 protein reduction)	≤25% (≤25% for 0-25% of IKZF3 protein reduction)	% of protein reduction based on densitometry values, IKZF3 (24 H) [6]: ≤25% (≤25% for 0-25% of IKZF3 protein reduction)

Continued, in another order:

Ki [1] [nM]	EC50 [3] [nM]	Normalized AUC to dBET1 [3]	BRD4 degradation (in words) [5]	SMILES	% of IKZF1 α protein reduction based on densitometry values ([4]; 0.1 μM)	% of IKZF1 α protein reduction based on densitometry values ([4]; 1 μM)	% of IKZF1 α protein reduction based on densitometry values ([4]; 10 μM)	% of IKZF3 protein reduction based on densitometry values, IKZF3 Band I ([6]; 0.1 μM, 6 h)	% of IKZF3 protein reduction based on densitometry values, IKZF3 Band II ([6]; 0.1 μM, 6 h)	% of IKZF3 protein reduction based on densitometry values, IKZF3 Band I ([6]; 1 μM, 6 h)	% of IKZF3 protein reduction based on densitometry values, IKZF3 Band II ([6]; 1 μM, 6 h)	% of IKZF3 protein reduction based on densitometry values, IKZF3 Band I ([6]; 10 μM, 6 h)	% of IKZF3 protein reduction based on densitometry values, IKZF3 Band II ([6]; 10 μM, 6 h)	% of protein reduction based on densitometry values, IKZF 1 (24 H) [4]	% of protein reduction based on densitometry values, SALL4 (24 H) [7]	% of protein reduction based on densitometry values, CK1α (24 H) [8]	% of IKZF3 protein reduction based on densitometry values, IKZF3 Band I ([6]; 10 μM, 24 h)	% of IKZF3 protein reduction based on densitometry values, IKZF3 Band II ([6]; 10 μM, 24 h)	% of IKZF3 protein reduction based on densitometry values, IKZF3 Band I ([6]; 20 μM, 24 h)	% of IKZF3 protein reduction based on densitometry values, IKZF3 Band II ([6]; 20 μM, 24 h)	further results
< 1000	38.8	1.22	–	Cc1sc2c(c1C)C(c1ccc(Cl)cc1)=N[C@@H](CC(=O)NCCCCCCCCNC(=O)Cn1c(C)nc3c(C(=O)NC4CCC(=O)NC4=O)cccc31)c1nnc(C)n1-2 (stereo partly drawn) [Compound 65, 1-(2-((8-(2-((S)-4-(4-chlorophenyl)-2,3,9-trimethyl-6H-thieno[3,2-f][1,2,4]triazolo[4,3-a][1,4]diazepin-6-yl)acetamido)octyl)amino)-2-oxoethyl)-N-(2,6-dioxopiperidin-3-yl)-2-methyl-1H-benzo[d]imidazole-4-carboxamide]	–	–	–	–	–	–	–	–	–	–	–	–	–	–	–	–	IKZF1-compound-CRBN/DDB1 complex formation (in words) [2]: do not promote IKZF1-compound-CRBN/DDB1 complex formation
< 1000	42.1	1.53	can degrade BRD4	Cc1nc2c(C(=O)NC3CCC(=O)NC3=O)cc(OCC(=O)NCCCCCCCCNC(=O)C[C@@H]3N=C(c4ccc(Cl)cc4)c4c(sc(C)c4C)-n4c(C)nnc43)cc2[nH]1 (stereo partly drawn) [Compound 66, 5-(2-((8-(2-((S)-4-(4-chlorophenyl)-2,3,9-trimethyl-6H-thieno[3,2-f][1,2,4]triazolo[4,3-a][1,4]diazepin-6-yl)acetamido)octyl)amino)-2-oxoethoxy)-N-(2,6-dioxopiperidin-3-yl)-2-methyl-1H-benzo[d]imidazole-7-carboxamide]	≤25% (≤25% for 0-25% of IKZF1 protein reduction)	≤25% (≤25% for 0-25% of IKZF1 protein reduction)	≤25% (≤25% for 0-25% of IKZF1 protein reduction)	≤25% (≤25% for 0-25% of IKZF3 protein reduction)	≤25% (≤25% for 0-25% of IKZF3 protein reduction)	≤25% (≤25% for 0-25% of IKZF3 protein reduction)	≤25% (≤25% for 0-25% of IKZF3 protein reduction)	≤25% (≤25% for 0-25% of IKZF3 protein reduction)	≤25% (≤25% for 0-25% of IKZF3 protein reduction)	–	–	–	–	–	–	–	–
